Reference: patent US6265445A, “Antiarrhythmic compounds” (priority 1997, dated 2001)

Tests used:
[1] = system: occlusion and reperfusion arrhythmias in anaesthetized dogs; experiment: Occlusion and reperfusion arrhythmias following acute coronary ligation in anaesthetized dogs; assay type: in vivo, mongrel dogs
Method: The method used is essentially in agreement with the method of Vegh et al. [Basic Res. Cardiol. 82, 159-171 (1987)].
Mongrel dogs of both sexes weighing 10 to 20 kg each were anaesthetized by a mixture of chloralose (60 mg/kg) and urethane (200 mg/kg) and the animals were maintained on artificial respiration. After opening the chest, the ramus descendens anterior (LAD) branch of the left coronary artery of heart was prepared from the first main collateral branch and a loose loop from surgical thread was placed around it. During our experiments, the blood pressure of the animal was measured by using a cannule introduced to the left femoral artery and even the standard ECG parameters by using needle electrodes were continuously registered. The arrhythmias were induced by the occlusion for 25 minutes of a loop placed round the LAD. The survival after lethal arrhythmias and frequency of the arrhythmias were registered. The 28 dogs used in the experiments were divided into three groups. The compound of Example 15 was administered in a dose of 1 mg/kg to 8 animals; d-sotalol was given in a dose of 3 mg/kg to 10 animals by a single intravenous injection 10 minutes before compression of the coronary vessel. The control dogs (10 animals) received 5 ml of physiological saline solution in the same manner as the treated animals.
By using this method it can be stated whether the substance investigated would be effective for protection against arrhythmias following the ligation of the coronary artery.

[2] = system: right ventricular papillary muscle of dogs; experiment: Intracellular microelectrode technique: action potential parameters, ventricular papillary muscle; design: species or system mongrel dogs
Method: The method used is essentially in agreement with the method of Papp et al. [J. Cardiovascular Pharmacol. Ther. 1, 287-296 (1996)].
Right ventricular papillary muscle and Purkinje's fibres were prepared from the hearts of mongrel dogs (weighing 5 to 10 kg each). The preparations were placed into an organ bath (37° C.) containing modified Tyrode's nutrient medium. The preparations were excited by a basal frequency of 1 Hz. During the experiments, the frequency of stimulation was varied under broad limits by a computer-guided stimulator. The intracellular action potentials were registered by using glass capillary microelectrodes filled with 3 N potassium chloride solution (standard intracellular microelectrode techniques). The resting potential (RP), the amplitude of the action potential (APA) as well as the duration of the action potential (APD) were measured by using an IBM 386 compatible computer by means of an own-developed software. The compounds under test were directly added into the organ bath after dilution of the stock solutions according to the final concentrations desired. The effects of the compounds were observed after an incubation time of 30 to 40 minutes.

[3] = system: right ventricular papillary muscle; experiment: Measurement of the contractile force in vitro; design: species or system rabbits; settings: 1 Hz; expected therapeutic concentration
Method: The method used is essentially in agreement with the method of Virag et al. [Gen. Pharmac. 27, pp. 551-556 (1996)].
Papillary muscles of hearts of rabbits (weighing 2 to 3 kg each) were prepared and placed into an organ bath (37° C.) containing modified Tyrode's nutrient medium. The preparations were stimulated by point-stimulation with a basal frequency of 1 Hz. The contractile force was measured by using an auxotonic method. The compounds under test were directly added into the organ bath after dilution of the stock solution according to the final concentration desired. The effects of compounds were observed after an incubation period of 30 to 45 minutes.
Using this method used information can be obtained concerning the direct cardiac effects of the compounds investigated. The effect of the compound of Example 15 on the contractile force is illustrated on the right ventricular papillary muscle at a frequency of 1 Hz in FIG. 2.

[4] = Table 4, ventricular muscle, 5 μM, 1 Hz, N = 6

## Cc1cccc(C)c1OCC(C)N(C)CCc1ccc(NS(C)(=O)=O)cc1.Cl (stereo not drawn) [Example 15, N-[4-[2-[N-Methyl-N-[2-(2,6-dimethylphenoxy)-1-methylethyl]amino]ethyl]phenyl]methanesulfonamide hydrochloride]
[1]; 1 mg/kg i.v.
  Complete survival, animals: 7/8
  Complete survival, percent: 87.5%
[1]; 1 mg/kg, versus d-sotalol 3 mg/kg
  protection from arrhythmogenic effects of ligation and reperfusion (in words): protected from the arrhythmogenic effects of ligation and reperfusion of the coronary artery to a higher degree than a dose of 3 mg/kg of d-sotalol
[1]; occlusion, 1 mg/kg i.v.
  ES (extrasystole): 36.6 ± 84.1
  VF (ventricular fibrillation), animals: 1/8
  VF (ventricular fibrillation), percent: 12.5%
  VT (ventricular tachycardia), animals: 1/8
  VT (ventricular tachycardia), percent: 12.5%
[1]; reperfusion, 1 mg/kg i.v.
  VF (ventricular fibrillation), animals: 0/7
  VF (ventricular fibrillation), percent: 0%
[2]; 5 μM
  APA (amplitude of the action potential): 106 mV
  APD50 (time of 50% repolarization): 210 ms
  APD90 (time of 90% repolarization): 261 ms
  RP (resting potential): -85 mV
  Recovery Ampl: 83.6 V/s
  Recovery Ampl/Plateau: 0.35
  Recovery Plateau: 245.5 V/s
  Vmax (maximum rate of depolarization): 203 V/s
  difference between the effects of Example 15 and its enantiomers (in words): No essential difference could be observed
[2]; 5 μM, Gy: kinetics of rapid restoration
  Trecovery (recovery time constant of Vmax): 270.1 ms
[2]; 5 μM, ventricular muscle of the dog
  effect on APD in ventricular muscle (in words): prolonged APD in the ventricular muscle of the dog
[2]; [4]
  APA: 106.3 ± 2.0 mV
  APD50: 209.5 ± 7.1 ms
  APD90: 260.5 ± 6.5 mS
  RP: -84.5 ± 1.3 mV
  Vmax: 203.0 ± 11.4 V/s
  Vmax time of recovery T: 270.1 ± 14.4 ms
  Vmax time of recovery amplitude: 83.6 ± 13.5 V/s
  Vmax time of recovery amplitude, percentage in parentheses: 35 ± 5%
  Vmax time of recovery plateau phase: 245.5 ± 28.0 V/s
[2]; concentrations of Table 2
  effect on duration of the action potential (in words): simultaneous prolongation of duration of the action potential (APD)
[2]; rapid recovery kinetics, concentrations of Table 2
  effect on Vmax (in words): mexiletine-like inhibition of Vmax
[3]
  negative inotropic action (in words): did not induce any negative inotropic action
